Measured values as given in patent US20240226234A1, “WNT5A PEPTIDES FOR THE TREATMENT OF ACUTE M[…]” (W[…], priority 2021, published 2024).
No end group written: not given here. *: point of attachment. For = O=C*

Legend:
Type in all cases: cell-based, human
[1] = system: U937 cells; test: Autophagy assay (acridine orange), U937 cells; settings: U937, 2D culture, 72 h
Experimental: (§1) A panel of human myeloid leukemia cell lines (HL60, K562, KG1a, THP1 and U937) and HS-5 mesenchymal stromal cells lineage were cultured in Roswell Park Memorial Institute medium-1640 (RPMI; Sigma) containing 10% Fetal Bovine Serum (Gibco), glutamine (2 mM; Sigma), penicillin (100 μg/mL; Sigma), streptomycin (100 μg/mL; Sigma), and amphotericin B (0.25 μg/mL; Gibco). The cells were maintained in a humidified atmosphere at 37° C. and 5% CO2 and the experiments were performed when they reached exponential growth. For the assays, cells were seeded on a 24-well plate and treated or not with Foxy-5 for 72 hours.
Cells treated with Foxy or with vehicle were collected and acids vesicles were measured by flow cytometry following staining with Acridine Orange (0.01 mg/mL; Sigma). Acquisition of cells was performed on a FACScalibur flow cytometer (BD) and analysis was carried out using the FlowJo software 4.
As autophagy is required for sustaining leukemia cell growth by induction of ROS production, we measured the levels of acidic granule formation by flow cytometry after Foxy-5 or vehicle treatment. […]

[2] = system: KG1a cells; test: Cell growth assay, KG1a cells; settings: Foxy-5 100 μM, 72 h
Experimental: as §1
Cells treated with Foxy or with vehicle were collected and cell number was evaluated by manual counting in monoculture and by microscopy with Image J software analysis in 2D culture.
Next, we evaluated the proliferation rates since this process is modulated by ROS. We treated the cells with Foxy-5 (100 μM) or with vehicle (DMSO) during 72 hours, and then cell growth was analyzed by counting the cells in monoculture, manually, or by the Image J software analysis of the 2D cultures. […] Similar results were obtained in the 2D culture system using leukemia cells and HS-5 mesenchymal stromal cells.

[3] = system: PI3K and MAPK pathways; test: Western blot of PI3K and MAPK pathway proteins, K562 cells; settings: K562, Foxy-5 50 μM or 100 μM, 72 h
Experimental: Equal amounts of protein were resolved by sodium dodecyl sulphate-polyacrylamide gel electrophoresis and transferred onto nitrocellulose membranes (Millipore). Detection was carried out with the chemiluminescent substrate using an ECL Plus (GE-Healthcare). Monoclonal antibodies against P70S6K (sc-8418) and polyclonal antibodies against Actin (sc-1616), AKT1/2/3 (sc-8312), BAX (sc-493), BCL-XL (sc-8392), GAPDH (sc-32,233), p-AKT1/2/3 (sc-33,437) and p-P70S6K (sc-7984) were purchased from Santa Cruz Biotechnology. ERK1/2 ([pT185/Y187]; 44-680G) and ERK1/2 (44-654G) from Invitrogen. Quantitative blots were carried out using the UN-SCAN-IT densitometer software.
Based on the above results, the activity of proteins of PI3K and MAPK pathways were then investigated in a western blot. Briefly, U937 and K562 cells were seeded and treated with Foxy-5 (50 μM or 100 μM) or vehicle for 72 hours. Then, equal amounts of protein were used for total extracts followed by electrophoresis on 12% SDS polyacrylamide gels under reducing conditions, transferred to nitrocellulose membranes, blocked with 10% skimmed milk in TBS-0.1% Tween for 1 hour, stained with appropriate primary and secondary antibodies. The membranes were visualized with chemiluminescence using an ECL Plus (GE-Healthcare). Quantitative analyses of the optical intensities of the protein bands were determined with Un-Scan-It Gel 6.1 (Silk Scientific Inc.).

[4] = system: U937 cells; test: ROS production by flow cytometry, U937 cells; settings: 72 h; for ROS production (MFI): U937, 2D culture on HS5 stromal cells; for ROS production (mean fluorescence intensity): U937, monoculture
Experimental: as §1
Cells treated with Foxy or with vehicle were collected and intracellular ROS generation was measured by flow cytometry following staining with DCFDA ([…]; Sigma). Acquisition of cells was performed on a FACScalibur flow cytometer (BD) and analysis was carried out using the FlowJo software.
Leukemia cell lines were treated for 72 h with Foxy-5, at doses of 50 and 100 μM, or vehicle, stained with DCFHA dye, and analyzed by flow cytometry.

[5] = system: K562 cells; test: Transwell chemotaxis assay toward CXCL12, K562 cells; settings: K562, Foxy-5 100 μM 72 h pretreatment, CXCL12 100 ng/mL, 24 h
Experimental: (§2) Leukemic cell lines, pretreated or not with Foxy-5 (72 hours of stimulation) were tested for chemotaxis in Transwell-based assays for Chemotaxis (6.5 mm diameter, 8 μm pore size; Corning). Polycarbonate membranes were incubated with poly-L-lysine (1 mg/mL) for 1 hour at 37° C. followed by saline buffer washing. Briefly, cells were collected, washed with media containing bovine serum albumin (0.1% BSA; Sigma), and then seeded at a density of 5×10^5 cells into the upper chamber of the transwell. The lower chamber was filled with media containing 0.5% BSA (negative control), media containing 10% FBS (positive control) and media 5 containing 0.5% BSA with CXCL12 (100 ng/ml; Peprotech) (Melo et al., 2014). Following 6 h or 24 h of incubation at 37° C., cells that migrated into the lower chamber were collected, centrifuged, resuspended in saline buffer and counted. The number of migrated cells was expressed as a percentage of the input, i.e., the cells number applied directly to the lower compartment in parallel wells. The migration of cells was normalized to 100%+/−standard deviation (SD) of triplicates (Favaro et al., 2013).
(§3) We investigated whether restoring of WNT5A could enable the modulation CXCL12-induced chemotaxis of leukemia cells. […]

[6] = system: THP1 cells; test: Transwell chemotaxis assay toward CXCL12, THP1 cells; settings: THP1, Foxy-5 100 μM 72 h pretreatment, CXCL12 100 ng/mL, 24 h
Experimental: as §2, §3

Q: Which results are given for “Foxy-5: Formylated hexapeptide fragment of WNT5A: MDGCEL (SEQ. ID. NO. 3) with methionine in position 1 as N-formyl methionine; WNT5A-mimicking compound (For-MDGCEL; listed as Homo sapiens)”?
A: autophagy (acidic granule formation, acridine orange, average) ([1]; Foxy-5 50 μM): 9.40 (range 7.68-11.00) MFI; autophagy (acidic granule formation, acridine orange, average) ([1]; Foxy-5 100 μM): 6.30 (range 4.80-8.31) MFI; reduced cell growth compared to vehicle treated cells ([2]; 2D culture with HS-5 stromal cells): 2.63 fold decrease; reduced cell growth compared to vehicle treated cells ([2]; monoculture): 1.37 fold decrease; phosphorylation level of AKT compared to vehicle-treated cells [3]: lower phosphorylation levels; phosphorylation level of ERK compared to vehicle-treated cells [3]: lower phosphorylation levels; protein level of cyclin D1 compared to vehicle-treated cells [3]: reduced protein level; ROS production (MFI) ([4]; Foxy-5 50 μM): 20.90 (range 19.90-22.63) MFI; ROS production (MFI) ([4]; Foxy-5 100 μM): 23.50 (range 21.70-23.80) MFI; ROS production (mean fluorescence intensity) ([4]; Foxy-5 50 μM): 7.32 (range 4.80-8.67) MFI; ROS production (mean fluorescence intensity) ([4]; Foxy-5 100 μM): 7.09 (range 4.70-8.40) MFI; CXCL12-induced chemotaxis (migrated cells as percentage of the input, average) [5]: 1.52%; CXCL12-induced chemotaxis (migrated cells as percentage of the input, average) [6]: 11.17%
